Results: patent US20260265262A1, “CDK2 INHIBITORS AND METHODS OF USING THE SAME” (Cedilla Therapeutics, Inc., priority 2022, published 2026)

Assays:
[1] = biological target: T1, CDK2/Cyclin E1 (Homo sapiens, UniProt P24941); assay: CDK2/Cyclin E1 Caliper LabChip EZ Reader mobility shift assay; format: biochemical; conditions: 2.5 nM CDK2/Cyclin E1, 100 μM ATP, 1.5 μM fluorescent peptide, 30 min pre-incubation; read-out: Caliper Assay (CDK2/CCNE1): IC50
Protocol: Inhibition of CDK2/Cyclin E1 activity in the presence of compounds of the present disclosure was evaluated using a CaliperLabChip® EZ Reader mobility shift assay. In the assay, CDK2/Cyclin E1 (Eurofins, 14-475) catalyzed the phosphorylation of a fluorescently tagged peptide 5-FAM-QSPKKG-CONH2 (PerkinEliner, FL Peptide 18) which induced a difference in capillary electrophoresis mobility. The peptide substrate and product were measured, and the conversion ratio was used to determine the inhibition (as % activity and IC50 values) of CDK2/Cyclin E1. Reactions contained 50 mM HEPES pH 7.5, 10 mM MgCl2, 1 mM EDTA, 2 mM DTT, 0.01% Brij35, 0.5 mg/mL BSA, 0.1% DMSO, 2.5 nM CDK2/Cyclin E1, 100 μM ATP, and 1.5 μM fluorescent peptide substrate.
Dose titrations of inhibitors in 100% DMSO were combined with 3.25 nM CDK2/Cyclin E1 and 130 μM of ATP in reaction buffer. The mixtures were incubated for 30 minutes before the addition of fluorescent peptide substrate to initiate the kinase reaction. The final conditions were 2.5 nM CDK2/Cyclin E1, 100 μM ATP, and 1.5 μM fluorescent peptide. The reactions were stopped after 100 minutes with the addition of EDTA (400 mM final EDTA concentration). The stopped reactions were analyzed on a Caliper LabChip® EZ Reader II. The conversion ratios were normalized to yield % activity, plotted against compound concentration, and fit to a four-parameter equation to determine the IC50 for each compound.

[2] = biological target: T1, CDK2/Cyclin E1; assay: ADP-Glo Luminescent Kinase Assay (CDK2/E1-37C); format: biochemical; conditions: 0.18 nM CDK2/Cyclin E1, 100 μM ATP, 1.5 μM Histone H1, 37° C., 60 min pre-incubation; read-out: ADPGLO (CDK2/E1-37C): IC50
In short: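 Human CDK2/Cyclin E1 preincubated with inhibitor 60 min at 37 °C, then reacted 90 min at 37 °C with final 0.18 nM enzyme, 100 μM ATP, 1.5 μM Histone H1 in HEPES pH 7.5 buffer. ADP formed read by ADP-Glo luminescence; IC50 from four-parameter fit.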

[3] = system: Kuramochi cells; assay: IncuCyte cell proliferation assay; format: cell-based; conditions: Kuramochi cells labeled with mApple-H2B, cell count 0 to 72 hours, 20 μM top concentration; read-out: IncuCyte Kuramochi RB-WT: IC50
In short: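 Kuramochi cells expressing mApple-H2B were treated with a 10-point, ½-log dilution series (top 20 μM). Fluorescent nuclei were counted by IncuCyte imaging at 0 and 72 h. The fold change in cell count was normalized to DMSO wells and fitted to dose-response curves to give […].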

Row | SMILES | IC50 [1] | IC50 [2] | IC50 [3]
1 | C[C@@H](OCC1CCC2(CCC2)CC1)[C@H](NC(=O)[C@@H]1CN(C(=O)c2cnn(Cc3ccccc3)c2)CC12CN(C(=O)[C@H]1CC1(C)C)C2)C(=O)O [Example I-40, N—((S)-6-(1-benzyl-1H-pyrazole-4-carbonyl)-2-((S)-2,2-dimethylcyclopropane-1-carbonyl)-2,6-diazaspiro[3.4]octane-8-carbonyl)-O-(spiro[3.5]nonan-7-ylmethyl)-L-threonine] | < 10 nM | < 500 nM | > 20000 nM
2 | COC(=O)CCNC(=O)[C@@H](NC(=O)[C@@H]1CN(C(=O)c2cnn(Cc3ccccc3)c2)CC12CN(C(=O)[C@H]1CC1(C)C)C2)[C@@H](C)OCC1CCCCC1 [Example I-42] | < 10 nM | < 500 nM | < 500 nM
3 | COC(=O)[C@@H](NC(=O)[C@@H]1CN(C(=O)c2cnn(Cc3ccccc3)c2)CC12CN(C(=O)[C@H]1CC1(C)C)C2)[C@@H](C)OCC1CCC2(CCC2)CC1 [Example I-43] | < 10 nM | < 500 nM | 500 to 5000 nM
4 | C[C@@H](OCC12CCC(CC1)OC2)[C@H](NC(=O)[C@@H]1CN(C(=O)c2cncs2)CC12CN(CC1CCCO1)C2)C(=O)N1CCC(c2nccs2)CC1 (stereo partly drawn) [Example I-44, (8S)—N-((2S,3R)-3-((2-oxabicyclo[2.2.2]octan-4-yl)methoxy)-1-oxo-1-(4-(thiazol-2-yl)piperidin-1-yl)butan-2-yl)-2-((tetrahydrofuran-2-yl)methyl)-6-(thiazole-5-carbonyl)-2,6-diazaspiro[3.4]octane-8-carboxamide] | > 10000 nM | > 100000 nM | > 20000 nM
5 | CNC(=O)[C@@H](NC(=O)[C@@H]1CN(C(=O)c2cncs2)CC12CN(CC1CCCO1)C2)[C@@H](C)OCC1(CO)CC=CCC1 (stereo partly drawn) [Example I-49] | 100 to 1000 nM | > 10000 nM | > 20000 nM

The next lines start with results.

Row | IC50 [1] | IC50 [2] | SMILES | IC50 [3]
6 | < 10 nM | < 500 nM | C[C@@H](OCC1CCCCC1)[C@H](NC(=O)[C@@H]1CN(C(=O)c2cnn(Cc3ccccc3)c2)CC12CN(C(=O)[C@H]1CC1(C)C)C2)C(=O)NCCC(=O)O [Example I-41, 3-((2S,3R)-2-((S)-6-(1-benzyl-1H-pyrazole-4-carbonyl)-2-((S)-2,2-dimethylcyclopropane-1-carbonyl)-2,6-diazaspiro[3.4]octane-8-carboxamido)-3-(cyclohexylmethoxy)butanamido)propanoic acid] | > 20000 nM
7 | < 10 nM | < 500 nM | C[C@@H](OCC1CCCCC1)[C@H](NC(=O)[C@@H]1CN(C(=O)c2cnn(Cc3ccccc3)c2)CC12CN(C(=O)[C@H]1CC1(C)C)C2)C(=O)N1CCC(c2ccc(C(=O)O)cc2)CC1 [Example I-45] | 500 to 5000 nM
8 | < 10 nM | < 500 nM | C[C@@H](OCC1CCCCC1)[C@H](NC(=O)[C@@H]1CN(C(=O)c2cnn(Cc3ccccc3)c2)CC12CN(C(=O)[C@H]1CC1(C)C)C2)C(=O)N1CCC[C@@H](C(=O)O)C1 [Example I-46] | > 20000 nM
9 | < 10 nM | < 500 nM | CCOC(=O)C(F)(F)CNC(=O)[C@@H](NC(=O)[C@@H]1CN(C(=O)c2cnn(Cc3ccccc3)c2)CC12CN(C(=O)[C@H]1CC1(C)C)C2)[C@@H](C)OCC1CCCCC1 [Example I-47, ethyl 3-((2S,3R)-2-((S)-6-(1-benzyl-1H-pyrazole-4-carbonyl)-2-((S)-2,2-dimethylcyclopropane-1-carbonyl)-2,6-diazaspiro[3.4]octane-8-carboxamido)-3-(cyclohexylmethoxy)butanamido)-2,2-difluoropropanoate] | 5000 to 20000 nM
